Measured values reported in patent publication US20260108529A1, “FUSED AMINO PYRIMIDINE COMPOUNDS FOR TREATMENT OF TINNITUS, ACUTE SENSORINEURAL HEARING LOSS, AGE-RELATED HEARING LOSS, AND MENIERE'S DISEASE” (Ovid Therapeutics Inc., priority 2024, published 2026).

Biological target: T1, KCC2 (Homo sapiens, UniProt Q9H2X9)
T1 construct: expressed in transfected cells; host or cells: HEK-293 (ATCC CRL-1573)
T1 sequence (Q9H2X9 1-1116 isoform Q9H2X9-2): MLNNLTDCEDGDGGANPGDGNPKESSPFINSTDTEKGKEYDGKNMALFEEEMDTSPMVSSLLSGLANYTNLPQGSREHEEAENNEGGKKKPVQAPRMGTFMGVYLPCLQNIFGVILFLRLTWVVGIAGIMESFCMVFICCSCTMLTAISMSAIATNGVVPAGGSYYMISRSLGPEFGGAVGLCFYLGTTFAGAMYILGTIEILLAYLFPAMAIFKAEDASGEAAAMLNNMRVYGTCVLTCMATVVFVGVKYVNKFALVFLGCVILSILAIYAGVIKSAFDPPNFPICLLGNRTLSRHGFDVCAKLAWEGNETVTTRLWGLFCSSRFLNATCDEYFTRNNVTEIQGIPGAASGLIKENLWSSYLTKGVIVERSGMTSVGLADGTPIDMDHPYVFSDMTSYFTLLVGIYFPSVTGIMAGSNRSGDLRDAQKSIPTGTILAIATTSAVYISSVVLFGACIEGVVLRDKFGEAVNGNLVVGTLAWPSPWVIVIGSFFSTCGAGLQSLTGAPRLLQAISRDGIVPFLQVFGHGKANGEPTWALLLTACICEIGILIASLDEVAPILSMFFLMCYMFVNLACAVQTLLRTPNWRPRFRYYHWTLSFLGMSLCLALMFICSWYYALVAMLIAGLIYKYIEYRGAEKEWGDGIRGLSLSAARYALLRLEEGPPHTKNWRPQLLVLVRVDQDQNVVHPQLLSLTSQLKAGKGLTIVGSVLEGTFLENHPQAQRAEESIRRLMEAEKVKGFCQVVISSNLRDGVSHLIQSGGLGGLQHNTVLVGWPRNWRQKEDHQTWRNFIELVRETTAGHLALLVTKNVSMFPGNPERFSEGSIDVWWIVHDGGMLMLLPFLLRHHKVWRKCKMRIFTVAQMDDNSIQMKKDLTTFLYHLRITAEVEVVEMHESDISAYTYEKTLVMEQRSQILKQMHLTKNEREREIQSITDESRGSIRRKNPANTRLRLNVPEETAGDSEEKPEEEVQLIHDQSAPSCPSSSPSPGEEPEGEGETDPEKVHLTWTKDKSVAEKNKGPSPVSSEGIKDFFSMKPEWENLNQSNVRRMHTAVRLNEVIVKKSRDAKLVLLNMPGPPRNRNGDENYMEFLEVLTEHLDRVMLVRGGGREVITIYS
Assay: Biotinylation, plasma membrane level of KCC2 in HEK-293 cells
Assay type: cell-based
Details: 15 min, surface/total KCC2
Procedure: Cell Culture and biotinylation. HEK-293 cells were purchased from ATCC (CRL-1573) and transfected with human KCC2 and GFP expression plasmids using Lipofectamine 2000. Cells were utilized for experimentation 48-72 h following transfection. Cells were biotinylated at 4° C. using NHS-Biotin. Following lysis and purification on immobilized avidin beads, cell surface and total fractions were subject to immunoblotting as outlined previously (Conway et al., 2017, supra).
The reliability of the biotinylation procedure was assessed via immunoblotting with antibodies against the cytosolic protein actin. Actin was present in the total lysates but was absent from the surface fractions (FIG. 2C).

level of KCC2 on the plasma membrane (0.3 μM): 94.5±8.4 % of control
level of KCC2 on the plasma membrane (3 μM): 104.7±8.4 % of control
SMILES: C[C@@H]1CN(c2nc3c(c(Nc4ccc(C5CCCCC5)cc4)n2)COC3)CCO1 [Compound A, (R)—N-(4-cyclohexylphenyl)-2-(2-methylmorpholino)-5,7-dihydrofuro[3,4-d]pyrimidin-4-amine]
